Assays:
Type in all cases: cell-based
[1] = tested on: RSV-Fluc (Recombinant Respiratory Syncytial virus strain A2 containing the firefly luciferase reporter); assay: microbe, parasite or virus in culture; settings: human respiratory syncytial virus, NHBE, 72 h, read-out: RSV-Fluc EC50 (nM, NHBE)
[2] = tested on: SARS-CoV-2; assay: microbe, parasite or virus in culture; settings: Severe acute respiratory syndrome coronavirus 2, 48 h
[3] = MT4 cytotoxicity analysis (CellTiter-Glo); settings: human, MT4 CC50 (nM)
Description: Example 79: MT4 Cytotoxicity Analysis
3-fold serially diluted compound in DMSO, ranging from 2.5 uM to 10 mM, were added by acoustic transfer (Echo) in quadruplicate into black 384-well plates at 200 nl/well. After compound addition, 40 ul MT-4 cells at 80,000/ml were added to each well using a MicroFlo liquid dispenser (BioTek, Winooski, VT) and the cells were cultured for five days at 37° C. Following the incubation, cell viability was determined by adding 35 μL of CellTiter-Glo viability reagent and mixed thoroughly using ViaFlo 384 well workstation. The mixture was incubated for at least 10 minutes at 25° C., and the luminescence signal was quantified on an EnVision plate reader.

| SMILES | EC50 [1] [nM] | EC50 [2] [µM] | CC50 at 5 days [3] [nM] |
| --- | --- | --- | --- |
| CCCCCCCCCCCCCCCCCCOC[C@H](COP(=O)(O)OC[C@H]1O[C@@](C#N)(c2ccc3c(N)ncnn23)[C@H](O)[C@@H]1O)N(Cc1ccc(F)c(Cl)c1)C(C)=O [Example 10, ((2R,3S,4R,5R)-5-(4-aminopyrrolo[2,1-f][1,2,4]triazin-7-yl)-5-cyano-3,4-dihydroxytetrahydrofuran-2-yl)methyl ((R)-2-(N-(3-chloro-4-fluorobenzyl)acetamido)-3-(octadecyloxy)propyl) hydrogen phosphate] | 55 | 3.6 | – |
| CCCCCCCCCCCCCCCCCCOC[C@H](COP(=O)(O)OC[C@H]1O[C@@](C#N)(c2ccc3c(N)ncnn23)[C@H](O)[C@@H]1O)N1Cc2ccccc2C1=O [Example 11, ((2R,3S,4R,5R)-5-(4-aminopyrrolo[2,1-f][1,2,4]triazin-7-yl)-5-cyano-3,4-dihydroxytetrahydrofuran-2-yl)methyl ((R)-3-(octadecyloxy)-2-(1-oxoisoindolin-2-yl)propyl) hydrogen phosphate] | 47 | 3.8 | – |
| CCCCCCCCCCCCCCCCSCCCOP(=O)(O)OC[C@H]1O[C@@](C#N)(c2ccc3c(N)ncnn23)[C@H](O)[C@@H]1O [Example 19, ((2R,3S,4R,5R)-5-(4-Aminopyrrolo[2,1-f][1,2,4]triazin-7-yl)-5-cyano-3,4-dihydroxytetrahydrofuran-2-yl)methyl (3-(hexadecylthio)propyl) hydrogen phosphate] | 210 | 3.4 | – |
| CCCCCCCCCCCCCCCCOCCOP(=O)(O)OC[C@H]1O[C@@](C#N)(c2ccc3c(N)ncnn23)[C@H](O)[C@@H]1O [Example 20, ((2R,3S,4R,5R)-5-(4-Aminopyrrolo[2,1-f][1,2,4]triazin-7-yl)-5-cyano-3,4-dihydroxytetrahydrofuran-2-yl)methyl (2-(hexadecyloxy)ethyl) hydrogen phosphate] | 200 | 3.8 | – |
| CCCCCCCCCCCCCCCCCCOC[C@H](COCc1cc(F)cc(S(C)(=O)=O)c1)OP(=O)(O)OC[C@H]1O[C@@](C#N)(c2ccc3c(N)ncnn23)[C@H](O)[C@@H]1O [Example 33, ((2R,3S,4R,5R)-5-(4-aminopyrrolo[2,1-f][1,2,4]triazin-7-yl)-5-cyano-3,4-dihydroxytetrahydrofuran-2-yl)methyl ((R)-1-((3-fluoro-5-(methylsulfonyl)benzyl)oxy)-3-(octadecyloxy)propan-2-yl) hydrogen phosphate] | 120 | – | – |
| CCCCCCCCCCCCCCCCCCOC[C@H](Cc1ccccc1)OP(=O)(O)OC[C@H]1O[C@@](C#N)(c2ccc3c(N)ncnn23)[C@H](O)[C@@H]1O [Example 40, ((2R,3S,4R,5R)-5-(4-aminopyrrolo[2,1-f][1,2,4]triazin-7-yl)-5-cyano-3,4-dihydroxytetrahydrofuran-2-yl)methyl ((S)-1-(octadecyloxy)-3-phenylpropan-2-yl) hydrogen phosphate] | 380 | – | – |
| CCCCCCCCCCCCCCCCCCOC[C@H](COP(=O)(O)OC[C@H]1O[C@@](C#N)(c2ccc3c(N)ncnn23)[C@H](O)[C@@H]1O)OCc1cc(F)cc(C(=O)O)c1 [Example 44, 3-((((2R)-1-(((((2R,3S,4R,5R)-5-(4-aminopyrrolo[2,1-f][1,2,4]triazin-7-yl)-5-cyano-3,4-dihydroxytetrahydrofuran-2-yl)methoxy)(hydroxy)phosphoryl)oxy)-3-(octadecyloxy)propan-2-yl)oxy)methyl)-5-fluorobenzoic acid] | 120 | – | 25000 |
| CCCCCCCCCCCCCCCCCCOC[C@H](COP(=O)(O)OC[C@H]1O[C@@](C#N)(c2ccc3c(N)ncnn23)[C@H](O)[C@@H]1O)Oc1ccc(C#N)c(OC)c1F [Example 48, ((2R,3S,4R,5R)-5-(4-aminopyrrolo[2,1-f][1,2,4]triazin-7-yl)-5-cyano-3,4-dihydroxytetrahydrofuran-2-yl)methyl ((R)-2-(4-cyano-2-fluoro-3-methoxyphenoxy)-3-(octadecyloxy)propyl) hydrogen phosphate] | 17 | – | 160 |
| CCCCCCCCCCCCCCCCCCOC[C@H](COP(=O)(O)OC[C@H]1O[C@@](C#N)(c2ccc3c(N)ncnn23)[C@H](O)[C@@H]1O)Oc1cc(C)c(C#N)cc1F [Example 49, ((2R,3S,4R,5R)-5-(4-aminopyrrolo[2,1-f][1,2,4]triazin-7-yl)-5-cyano-3,4-dihydroxytetrahydrofuran-2-yl)methyl ((R)-2-(4-cyano-2-fluoro-5-methylphenoxy)-3-(octadecyloxy)propyl) hydrogen phosphate] | 23 | – | 1100 |
| CCCCCCCCCCCCCCCCCCOC[C@H](COP(=O)(O)OC[C@H]1O[C@@](C#N)(c2ccc3c(N)ncnn23)[C@H](O)[C@@H]1O)OCc1cc(F)c(Cl)c(C#N)c1 [Example 50, ((2R,3S,4R,5R)-5-(4-aminopyrrolo[2,1-f][1,2,4]triazin-7-yl)-5-cyano-3,4-dihydroxytetrahydrofuran-2-yl)methyl ((R)-2-((4-chloro-3-cyano-5-fluorobenzyl)oxy)-3-(octadecyloxy)propyl) hydrogen phosphate] | 24 | – | 640 |
| CCCCCCCCCCCCCCCCCCOC[C@H](COP(=O)(O)OC[C@H]1O[C@@](C#N)(c2ccc3c(N)ncnn23)[C@H](O)[C@@H]1O)OCc1cc(F)c(CCC)c(C#N)c1 [Example 51, ((2R,3S,4R,5R)-5-(4-aminopyrrolo[2,1-f][1,2,4]triazin-7-yl)-5-cyano-3,4-dihydroxytetrahydrofuran-2-yl)methyl ((R)-2-((3-cyano-5-fluoro-4-propylbenzyl)oxy)-3-(octadecyloxy)propyl) hydrogen phosphate] | 100 | – | 6700 |
| CCCCCCCCCCCCCCCCCCOC[C@H](COP(=O)(O)OC[C@H]1O[C@@](C#N)(c2ccc3c(N)ncnn23)[C@H](O)[C@@H]1O)Oc1cc(OC)c(C#N)cc1F [Example 52, ((2R,3S,4R,5R)-5-(4-aminopyrrolo[2,1-f][1,2,4]triazin-7-yl)-5-cyano-3,4-dihydroxytetrahydrofuran-2-yl)methyl ((R)-2-(4-cyano-2-fluoro-5-methoxyphenoxy)-3-(octadecyloxy)propyl) hydrogen phosphate] | 17 | – | 370 |
| CCCCCCCCCCCCCCCCCCOC[C@H](COP(=O)(O)OC[C@H]1O[C@@](C#N)(c2ccc3c(N)ncnn23)[C@H](O)[C@@H]1O)OCc1cc(F)c(C)c(C#N)c1 [Example 53, ((2R,3S,4R,5R)-5-(4-aminopyrrolo[2,1-f][1,2,4]triazin-7-yl)-5-cyano-3,4-dihydroxytetrahydrofuran-2-yl)methyl ((R)-2-((3-cyano-5-fluoro-4-methylbenzyl)oxy)-3-(octadecyloxy)propyl) hydrogen phosphate] | 25 | – | 430 |
| CCCCCCCCCCCCCCCCOCCOP(=O)(O)OC[C@H]1O[C@@](C#N)(c2ccc3c(N)ncnn23)[C@H](O)[C@@H]1O [Example 66, [(2R,3S,4R,5R)-5-(4-Aminopyrrolo[2,1-f][1,2,4]triazin-7-yl)-5-cyano-3,4-dihydroxy-tetrahydrofuran-2-yl]methyl 2-hexadecoxyethyl hydrogen phosphate] | – | – | 29000 |

— patent US12208110B2 (priority 2020, dated 2025)
